Converted amounts (≈) assume the structure as drawn.
Columns and labels:
Format in all cases: functional
[1] = system: Mycobacterium kansasii; test: Antimycobacterial activity against Mycobacterium kansasii CNCTC My 235/80 after 21 days by micromethod; settings: CNCTC My 235/80, 504 h
[2] = system: Mycobacterium avium; test: Antimycobacterial activity against Mycobacterium avium CNCTC My 330/88 after 21 days by micromethod; settings: CNCTC My 330/88, 504 h
[3] = system: Mycobacterium kansasii; test: Antimycobacterial activity against Mycobacterium kansasii 6509/96 clinical isolate after 7 days by micromethod; settings: 6509/96, 168 h
[4] = system: Mycobacterium tuberculosis; test: Antimycobacterial activity against Mycobacterium tuberculosis CNCTC My 331/88 after 21 days by micromethod; settings: CNCTC My 331/88, 504 h
[5] = system: Mycobacterium kansasii; test: Antimycobacterial activity against Mycobacterium kansasii 6509/96 clinical isolate after 14 days by micromethod; settings: 6509/96, 336 h
[6] = system: Mycobacterium kansasii; test: Antimycobacterial activity against Mycobacterium kansasii CNCTC My 235/80 after 7 days by micromethod; settings: CNCTC My 235/80, 168 h
[7] = system: Mycobacterium tuberculosis; test: Antimycobacterial activity against Mycobacterium tuberculosis CNCTC My 331/88 after 14 days by micromethod; settings: CNCTC My 331/88, 336 h
[8] = system: Mycobacterium kansasii; test: Antimycobacterial activity against Mycobacterium kansasii 6509/96 clinical isolate after 21 days by micromethod; settings: 6509/96, 504 h
[9] = system: Mycobacterium avium; test: Antimycobacterial activity against Mycobacterium avium CNCTC My 330/88 after 14 days by micromethod; settings: CNCTC My 330/88, 336 h
[10] = system: Mycobacterium kansasii; test: Antimycobacterial activity against Mycobacterium kansasii CNCTC My 235/80 after 14 days by micromethod; settings: CNCTC My 235/80, 336 h

Row | Structure (SMILES) | MIC [1] [µM] | MIC [2] [µM] | MIC [3] [µM] | MIC [4] [µM] | MIC [5] [µM] | MIC [6] [µM] | MIC [7] [µM] | MIC [8] [µM] | MIC [9] [µM] | MIC [10] [µM]
1 | CSc1nnc(-c2cc([N+](=O)[O-])cc([N+](=O)[O-])c2)o1 | 32 (≈ 9.03 µg/mL) | 16 (≈ 4.52 µg/mL) | 8 (≈ 2.26 µg/mL) | 8 (≈ 2.26 µg/mL) | 8 (≈ 2.26 µg/mL) | 8 (≈ 2.26 µg/mL) | 4 (≈ 1.13 µg/mL) | 16 (≈ 4.52 µg/mL) | 16 (≈ 4.52 µg/mL) | 16 (≈ 4.52 µg/mL)
2 | CC(=O)Nc1cc(-c2nnc(SCc3ccccc3)o2)cc([N+](=O)[O-])c1 | > 1000 | > 1000 | > 1000 | > 1000 | > 1000 | > 1000 | > 1000 | > 1000 | > 1000 | > 1000
3 | O=[N+]([O-])c1cc(-c2nnc(S)o2)cc([N+](=O)[O-])c1 | 125 (≈ 33.5 µg/mL) | 125 (≈ 33.5 µg/mL) | 125 (≈ 33.5 µg/mL) | 62 (≈ 16.6 µg/mL) | 125 (≈ 33.5 µg/mL) | 125 (≈ 33.5 µg/mL) | 62 (≈ 16.6 µg/mL) | 125 (≈ 33.5 µg/mL) | 62 (≈ 16.6 µg/mL) | 125 (≈ 33.5 µg/mL)
4 | CC(=O)Nc1cc(-c2nnc(SCc3ccc([N+](=O)[O-])cc3)o2)cc([N+](=O)[O-])c1 | > 500 | > 500 | > 500 | > 500 | > 500 | > 500 | > 500 | > 500 | > 500 | > 500
5 | O=[N+]([O-])c1cc(-n2nnnc2SCc2ccccc2)cc([N+](=O)[O-])c1 | 4 (≈ 1.43 µg/mL) | 8 (≈ 2.87 µg/mL) | 1 (≈ 0.358 µg/mL) | 1 (≈ 0.358 µg/mL) | 2 (≈ 0.717 µg/mL) | 1 (≈ 0.358 µg/mL) | 0.5 (≈ 0.179 µg/mL) | 2 (≈ 0.717 µg/mL) | 4 (≈ 1.43 µg/mL) | 2 (≈ 0.717 µg/mL)
6 | CCCCCSc1nnc(-c2cc([N+](=O)[O-])cc([N+](=O)[O-])c2)o1 | 0.03 (≈ 0.0102 µg/mL) | 32 (≈ 10.8 µg/mL) | 0.03 (≈ 0.0102 µg/mL) | 0.03 (≈ 0.0102 µg/mL) | 0.03 (≈ 0.0102 µg/mL) | 0.03 (≈ 0.0102 µg/mL) | 0.03 (≈ 0.0102 µg/mL) | 0.03 (≈ 0.0102 µg/mL) | 16 (≈ 5.41 µg/mL) | 0.03 (≈ 0.0102 µg/mL)
7 | NNC(=O)c1ccncc1 [ISONIAZID] | – | > 250 | 4 (≈ 0.549 µg/mL) | 1 (≈ 0.137 µg/mL) | 4 (≈ 0.549 µg/mL) | > 250 | 0.5 (≈ 0.0686 µg/mL) | 8 (≈ 1.1 µg/mL) | > 250 | > 250
8 | O=[N+]([O-])c1cc(-c2nnc(SCc3ccc(Cl)cc3)o2)cc(C(F)(F)F)c1 | 1 (≈ 0.416 µg/mL) | > 250 | 1 (≈ 0.416 µg/mL) | 0.5 (≈ 0.208 µg/mL) | 1 (≈ 0.416 µg/mL) | 1 (≈ 0.416 µg/mL) | 0.5 (≈ 0.208 µg/mL) | 1 (≈ 0.416 µg/mL) | > 250 | 1 (≈ 0.416 µg/mL)
9 | O=[N+]([O-])c1cc(-c2nnc(SC3CCCCC3)o2)cc([N+](=O)[O-])c1 | 0.03 (≈ 0.0105 µg/mL) | 32 (≈ 11.2 µg/mL) | 0.03 (≈ 0.0105 µg/mL) | 0.03 (≈ 0.0105 µg/mL) | 0.03 (≈ 0.0105 µg/mL) | 0.03 (≈ 0.0105 µg/mL) | 0.03 (≈ 0.0105 µg/mL) | 0.03 (≈ 0.0105 µg/mL) | 16 (≈ 5.61 µg/mL) | 0.03 (≈ 0.0105 µg/mL)
10 | CC(=O)Oc1cc(-c2nnc(SCc3ccc(Cl)c(Cl)c3)o2)cc([N+](=O)[O-])c1 | 1000 (≈ 440 µg/mL) | 1000 (≈ 440 µg/mL) | 1000 (≈ 440 µg/mL) | 1000 (≈ 440 µg/mL) | 1000 (≈ 440 µg/mL) | 1000 (≈ 440 µg/mL) | 1000 (≈ 440 µg/mL) | 1000 (≈ 440 µg/mL) | 1000 (≈ 440 µg/mL) | 1000 (≈ 440 µg/mL)
11 | O=[N+]([O-])c1cc(-c2nnc(SCc3ccccc3)o2)cc([N+](=O)[O-])c1 | 0.5 (≈ 0.179 µg/mL) | 4 (≈ 1.43 µg/mL) | 0.25 (≈ 0.0896 µg/mL) | 0.5 (≈ 0.179 µg/mL) | 0.5 (≈ 0.179 µg/mL) | 0.25 (≈ 0.0896 µg/mL) | 0.5 (≈ 0.179 µg/mL) | 0.5 (≈ 0.179 µg/mL) | 4 (≈ 1.43 µg/mL) | 0.5 (≈ 0.179 µg/mL)
12 | Nc1cc(-c2nnc(SCc3ccc([N+](=O)[O-])cc3)o2)cc([N+](=O)[O-])c1 | 125 (≈ 46.7 µg/mL) | 125 (≈ 46.7 µg/mL) | 125 (≈ 46.7 µg/mL) | 125 (≈ 46.7 µg/mL) | 125 (≈ 46.7 µg/mL) | 125 (≈ 46.7 µg/mL) | 125 (≈ 46.7 µg/mL) | 125 (≈ 46.7 µg/mL) | 125 (≈ 46.7 µg/mL) | 125 (≈ 46.7 µg/mL)
13 | Nc1cc(-c2nnc(SCc3ccc(Cl)cc3)o2)cc([N+](=O)[O-])c1 | 250 (≈ 90.7 µg/mL) | 250 (≈ 90.7 µg/mL) | 250 (≈ 90.7 µg/mL) | 250 (≈ 90.7 µg/mL) | 250 (≈ 90.7 µg/mL) | 250 (≈ 90.7 µg/mL) | 250 (≈ 90.7 µg/mL) | 250 (≈ 90.7 µg/mL) | 250 (≈ 90.7 µg/mL) | 250 (≈ 90.7 µg/mL)
14 | Nc1cc(-c2nnc(SCc3ccccc3)o2)cc([N+](=O)[O-])c1 | 250 (≈ 82.1 µg/mL) | 250 (≈ 82.1 µg/mL) | 250 (≈ 82.1 µg/mL) | 250 (≈ 82.1 µg/mL) | 250 (≈ 82.1 µg/mL) | 250 (≈ 82.1 µg/mL) | 250 (≈ 82.1 µg/mL) | 250 (≈ 82.1 µg/mL) | 250 (≈ 82.1 µg/mL) | 250 (≈ 82.1 µg/mL)

Source: ChEMBL document CHEMBL4002566, “S-substituted 3,5-dinitrophenyl 1,3,4-oxadiazole-2-thiols and tetrazole-5-thiols as highly efficient antitubercular agents” (Eur J Med Chem, 2017)
